≈ marks a conversion by molar mass, not a printed value. Where two headings read alike, the source gives them in different places.
What was measured:
[1] = tested on: Pseudomonas aeruginosa (2,412/2019); assay: MIC/MBC, broth micro-dilution; type: cell-based; details: for MIC: 18 h
Protocol: (§1) The minimum inhibitory concentration of sCur was determined by the broth microdilution method as described earlier with minor modifications.
(§2) Briefly, Staphylococcus aureus, Staphylococcus epidermidis, Klebsiella pneumoniae, Escherichia coli, and Pseudomonas aeruginosa were grown in 10 ml BHI broth aerobically for 18 h. Bacterial culture (500 µl) was then diluted to 1.5 ml fresh BHI broth. […] The stock was diluted in a series of two-fold dilutions ranging from 0.5 to 512 µg/ml in sterile BHI broth in microtiter wells. Each well of the 96-well microtiter plate was then inoculated with 190 µl of standardized cell suspension (10^5 CFU/ml) and incubated at 37 °C for next 18 h along with the 20 µl sCur suspension. The MIC was defined as the lowest concentration of sCur at which no obvious growth was observed.

[2] = tested on: Escherichia coli (507/2019); assay: MIC/MBC, broth micro-dilution; type: cell-based; details: for MIC: 18 h
Protocol: as §1, §2

[3] = tested on: Staphylococcus aureus (MRSA, 2,862/2019); assay: MIC/MBC, broth micro-dilution; type: cell-based; details: for MIC: 18 h
Protocol: as §1, §2

[4] = tested on: Klebsiella pneumoniae (10,825/2019); assay: MIC/MBC, broth micro-dilution; type: cell-based; details: for MIC: 18 h
Protocol: as §1, §2

[5] = tested on: Gram-positive and Gram-negative MDR isolates; assay: MIC, broth micro-dilution, summary for MDR isolates; type: cell-based
Protocol: as §1, §2

[6] = tested on: Pseudomonas aeruginosa (ATCC25619); assay: MIC/MBC, broth micro-dilution; type: cell-based; details: for MIC: ATCC25619, 18 h
Protocol: as §1
(§3) Briefly, Staphylococcus aureus, Staphylococcus epidermidis, Klebsiella pneumoniae, Escherichia coli, and Pseudomonas aeruginosa were grown in 10 ml BHI broth aerobically for 18 h. Bacterial culture (500 µl) was then diluted to 1.5 ml fresh BHI broth. The sCur stock solution (1,024 µg/ml) was used for the study. The stock was diluted in a series of two-fold dilutions ranging from 0.5 to 512 µg/ml in sterile BHI broth in microtiter wells. Each well of the 96-well microtiter plate was then inoculated with 190 µl of standardized cell suspension (10^5 CFU/ml) and incubated at 37 °C for next 18 h along with the 20 µl sCur suspension. The MIC was defined as the lowest concentration of sCur at which no obvious growth was observed. Positive controls were having either ciprofloxacin or meropenem (for gram positive and gram negative respectively) while the sterile broth served as negative control and all the experiments were performed in triplicate.

[7] = tested on: Staphylococcus aureus (ATCC29213); assay: MIC/MBC, broth micro-dilution; type: cell-based; details: for MIC: ATCC29213, 18 h
Protocol: as §1, §3

[8] = tested on: Klebsiella pneumoniae (ATCC700603); assay: MIC/MBC, broth micro-dilution; type: cell-based; details: for MIC: ATCC700603, 18 h
Protocol: as §1, §3

[9] = tested on: Escherichia coli (ATCC25922); assay: MIC/MBC, broth micro-dilution; type: cell-based; details: for MIC: ATCC25922, 18 h
Protocol: as §1, §3

[10] = tested on: Staphylococcus epidermidis (ATCC35984); assay: MIC/MBC, broth micro-dilution; type: cell-based; details: for MIC: ATCC35984, 18 h
Protocol: as §1, §3

Klebsiella pneumoniae [11] = assay: DPH flow cytometry, membrane dynamics; type: cell-based; details: 256 µg/ml
Klebsiella pneumoniae [12] = assay: DiSC3-5 flow cytometry, membrane depolarization; details: 256 µg/ml
Protocol: (§6) The membrane potential-sensitive dye DiSC3-5 was used to measure plasma membrane depolarization in bacterial membranes as described earlier with modifications[44]. The isolates were cultured in BHI broth overnight with subsequent dilution to adjust the absorbance to 0.05 at λmax 600. […] This was further incubated for 20 min with 1 µM DiSC3-5. Negative control was without any drug while native curcumin treated bacterial lane served as positive control. The fluorescence was measured employing Synergy H1 Hybrid Multi-Mode Reader with excitation at 622 nm and emission at 670 nm. Besides, the percentages of bacterial cells showing fluorescence were measured using the flow cytometry (C6 BD Accuri, Becton–Dickinson, San Jose, CA, USA).

[13] = tested on: Pseudomonas aeruginosa (2,412/2019); assay: Modified MIC in combination, checkerboard titration; type: cell-based
Protocol: (§4) Serial dilutions of with these antibiotics were mixed in cation-adjusted Muller Hinton broth. The inoculum was prepared from the overnight grown colonies on MHA. The final bacterial concentration after inoculation was […].

[14] = tested on: Escherichia coli (507/2019); assay: as above; type: cell-based
Protocol: as §4

[15] = tested on: Klebsiella pneumoniae (10,825/2019); assay: as above; type: cell-based
Protocol: as §4

Klebsiella pneumoniae [16] = assay: DCFH-DA flow cytometry, ROS production; type: cell-based; details: single agents, time not stated; untreated 0.1%
MRSA clinical isolate = assay: DPH steady-state fluorimetry, membrane dynamics; type: cell-based, Staphylococcus aureus; details: vancomycin alone; 8 µg/ml sCur with 16 µg/ml vancomycin 60 min; untreated 89.86 ± 2.07
Protocol: (§5) We utilized the previously described method. Multidrug-resistant clinical isolates of Staphylococcus aureus, Staphylococcus epidermidis, Klebsiella pneumoniae, Escherichia coli, and Pseudomonas aeruginosa were treated with MIC concentration of sCur, vancomycin, and in combination (here data of only Klebsiella pneumoniae is shown). We incubated the treated cells for 120 min with shaking (100 rpm) at 37 °C, with subsequent harvesting. The pellet was re-suspended and re-pelleted. We fixed the pellet with 0.4% paraformaldehyde with subsequent resuspension in PBS. We later on incubated the re-suspended cells with 0.5 mM 1, 6-diphenyl-1, 3, 5-hexatriene (DPH) at 37 °C for 60 min, pelleted and washed thrice with PBS. The fluorescence intensity was monitored spectrophotometrically employing Synergy H1 Hybrid Multi-Mode Reader at 350 nm (excitation) and 425 nm (emission).

[17] = tested on: Staphylococcus aureus (MRSA, 2,862/2019); assay: microbe, parasite or virus in culture
Protocol: as §4

[18] = tested on: S. aureus and K. pneumoniae cells; assay: Hydroxyl radical estimation with HPF dye; type: cell-based, Staphylococcus aureus and Klebsiella pneumoniae; details: one hour treatment, compared to untreated cells
Protocol: The fluorescent reporter dye 3′-(p-hydroxyphenyl) fluorescein (HPF) was used for […] free radical detection as described previously. Overnight cultures were diluted 1:250 with 25 ml of BHI broth in 250 ml flasks and incubated at 37 °C, with shaking (200 rpm). Cells were grown until they reached the OD600 ~ 0.3. Five hundred microliters sample was taken from the flasks and transferred to an 8-well plate for treatments. […] The supernatant was exchanged with phosphate buffered saline supplemented with […] HPF with incubation in the dark at room temperature for 15 min and re-pelleted by centrifugation at 10,000 rpm. The supernatant was removed and replaced with 1 × PBS for fluorimetry measurements.

[19] = tested on: K. pneumoniae clinical isolate; assay: DPH steady-state fluorimetry, membrane dynamics; type: cell-based, Klebsiella pneumoniae; details: vancomycin alone; sCur at MIC alone 120 min; 8 µg/ml sCur with 16 µg/ml vancomycin 60 min; untreated 93.44 ± 2.646
Protocol: as §5

[20] = tested on: multi-drug resistant K. pneumoniae and S. aureus isolates; assay: DiSC3-5 steady-state fluorimetry, membrane depolarization; type: cell-based, Klebsiella pneumoniae and Staphylococcus aureus; details: 8 µg/ml sCur with 16 µg/ml vancomycin, 120 min; vancomycin alone; untreated 18.67 ± 2.082
Protocol: as §6

[21] = antibiotic with native curcumin (8 µg/ml)

## O=C(O)c1cn(C2CC2)c2cc(N3CCNCC3)c(F)cc2c1=O [Ciprofloxacin, ciprofloxacin]
[1]; read-out: MBC
  MBC: 256 µg/mL (≈ 773 µM)
[2]; read-out: MBC
  MBC: 64 µg/mL (≈ 193 µM)
[3]; read-out: MBC
  MBC: 64 µg/mL (≈ 193 µM)
[4]; read-out: MBC
  MBC: 128 µg/mL (≈ 386 µM)
[5]; MDR isolates, antibiotics alone, read-out: MIC
  MIC: 64 µg/mL (≈ 193 µM)
[6]; read-out: MIC
  MIC: 0.5 µg/mL (≈ 1.51 µM)
[6]; ATCC25619, read-out: MBC
  MBC: 1 µg/mL (≈ 3.02 µM)
[7]; read-out: MIC
  MIC: 0.25 µg/mL (≈ 0.754 µM)
[7]; ATCC29213, read-out: MBC
  MBC: 0.5 µg/mL (≈ 1.51 µM)
[8]; read-out: MIC
  MIC: 0.5 µg/mL (≈ 1.51 µM)
[8]; ATCC700603, read-out: MBC
  MBC: 1 µg/mL (≈ 3.02 µM)
[9]; read-out: MIC
  MIC: 0.25 µg/mL (≈ 0.754 µM)
[9]; ATCC25922, read-out: MBC
  MBC: 0.5 µg/mL (≈ 1.51 µM)
[10]; read-out: MIC
  MIC: < 0.25 µg/mL
[10]; ATCC35984, read-out: MBC
  MBC: 0.5 µg/mL (≈ 1.51 µM)

## COc1cc(/C=C/C(=O)CC(=O)/C=C/c2ccc(O)c(OC)c2)ccc1O [Curcumin, curcumin]
[1]; read-out: MIC
  MIC: ≥ 1020 µg/mL
[1]; read-out: MBC
  MBC: ≥ 1020 µg/mL
[2]; read-out: MIC
  MIC: 512 µg/mL (≈ 1390 µM)
[2]; read-out: MBC
  MBC: ≥ 1020 µg/mL
[3]; read-out: MIC
  MIC: 256 µg/mL (≈ 695 µM)
[3]; read-out: MBC
  MBC: ≥ 1020 µg/mL
[4]; read-out: MIC
  MIC: 512 µg/mL (≈ 1390 µM)
[4]; read-out: MBC
  MBC: ≥ 1020 µg/mL
[6]; read-out: MIC
  MIC: 512 µg/mL (≈ 1390 µM)
[6]; ATCC25619, read-out: MBC
  MBC: ≥ 1020 µg/mL
[7]; read-out: MIC
  MIC: 128 µg/mL (≈ 347 µM)
[7]; ATCC29213, read-out: MBC
  MBC: ≥ 1020 µg/mL
[8]; read-out: MIC
  MIC: 256 µg/mL (≈ 695 µM)
[8]; ATCC700603, read-out: MBC
  MBC: ≥ 1020 µg/mL
[9]; read-out: MIC
  MIC: 256 µg/mL (≈ 695 µM)
[9]; ATCC25922, read-out: MBC
  MBC: ≥ 1020 µg/mL
[10]; read-out: MIC
  MIC: 128 µg/mL (≈ 347 µM)
[10]; ATCC35984, read-out: MBC
  MBC: ≥ 1020 µg/mL
Klebsiella pneumoniae [11]
  right shifting of the population, DPH: significant right shifting
Klebsiella pneumoniae [12]
  right shifting of the population, DiSC3-5: 35%

## C[C@@H](O)[C@H]1C(=O)N2C(C(=O)O)=C(S[C@@H]3CN[C@H](C(=O)N(C)C)C3)[C@H](C)[C@H]12 [Meropenem, meropenem]
[13]; antibiotic with sCur (8 µg/ml)
  modified MIC: 4 µg/mL
[14]; [21]
  modified MIC: 64 µg/mL
[14]; antibiotic with sCur (8 µg/ml)
  modified MIC: 1 µg/mL
[15]; antibiotic with sCur (8 µg/ml)
  modified MIC: 2 µg/mL
[1]; read-out: MBC
  MBC: 256 µg/mL (≈ 668 µM)
[2]; read-out: MIC
  MIC: 64 µg/mL (≈ 167 µM)
[4]; read-out: MBC
  MBC: 256 µg/mL (≈ 668 µM)
[6]; read-out: MIC
  MIC: 0.5 µg/mL (≈ 1.3 µM)
[6]; ATCC25619, read-out: MBC
  MBC: 1 µg/mL (≈ 2.61 µM)
[8]; read-out: MIC
  MIC: 0.5 µg/mL (≈ 1.3 µM)
[8]; ATCC700603, read-out: MBC
  MBC: 1 µg/mL (≈ 2.61 µM)
[9]; read-out: MIC
  MIC: 0.25 µg/mL (≈ 0.652 µM)
[9]; ATCC25922, read-out: MBC
  MBC: 1 µg/mL (≈ 2.61 µM)

## CN[C@H](CC(C)C)C(=O)N[C@H]1C(=O)N[C@@H](CC(N)=O)C(=O)N[C@H]2C(=O)N[C@H]3C(=O)N[C@H](C(=O)N[C@H](C(=O)O)c4cc(O)cc(O)c4-c4cc3ccc4O)[C@H](O)c3ccc(c(Cl)c3)Oc3cc2cc(c3O[C@@H]2O[C@H](CO)[C@@H](O)[C@H](O)[C@H]2O[C@H]2C[C@](C)(N)[C@H](O)[C@H](C)O2)Oc2ccc(cc2Cl)[C@H]1O [Vancomycin, vancomycin]
Klebsiella pneumoniae [16]
  cell population that took up DCFDA, ROS generation (gate M3): 38.6%
MRSA clinical isolate
  DPH fluorescence intensity: 84.24 ± 1.875 a.u.
[13]; [21]
  modified MIC: 1024 µg/mL
[13]; antibiotic with sCur (8 µg/ml)
  modified MIC: 16 µg/mL
[14]; [21]
  modified MIC: 512 µg/mL
[14]; antibiotic with sCur (8 µg/ml)
  modified MIC: 8 µg/mL
[15]; [21]
  modified MIC: 512 µg/mL
[15]; antibiotic with sCur (8 µg/ml)
  modified MIC: 16 µg/mL
[1]
  MBC: ≥ 1020 µg/mL
  MIC: 1020 µg/mL (≈ 707 µM)
[2]
  MBC: ≥ 1020 µg/mL
  MIC: 512 µg/mL (≈ 353 µM)
[3]
  MBC: 2 µg/mL (≈ 1.38 µM)
  MIC: 1 µg/mL (≈ 0.69 µM)
[4]
  MBC: ≥ 1020 µg/mL
  MIC: 512 µg/mL (≈ 353 µM)
[17]; read-out: Modified MIC
  MIC: 1 µg/mL (≈ 0.69 µM)
[17]; read-out: modified MIC
  MIC: 0.25 µg/mL (≈ 0.173 µM)
[5]
  MIC: 512 µg/mL (≈ 353 µM)
[18]
  HPF fluorescence, OH radical production: fair increase in the fluorescence
[19]
  DPH fluorescence intensity: 89.21 ± 2.614 a.u.
[6]; ATCC25619
  MBC: ≥ 1020 µg/mL
[6]
  MIC: 1020 µg/mL (≈ 707 µM)
[7]; ATCC29213
  MBC: 2 µg/mL (≈ 1.38 µM)
[7]
  MIC: 0.5 µg/mL (≈ 0.345 µM)
[8]; ATCC700603
  MBC: ≥ 1020 µg/mL
[8]
  MIC: 256 µg/mL (≈ 177 µM)
[9]; ATCC25922
  MBC: ≥ 1020 µg/mL
[9]
  MIC: 256 µg/mL (≈ 177 µM)
[10]; ATCC35984
  MBC: 1 µg/mL (≈ 0.69 µM)
[10]
  MIC: 0.25 µg/mL (≈ 0.173 µM)
Klebsiella pneumoniae [11]
  right shifting of the population, DPH: mild right shifting
[20]
  DiSC3-5 fluorescence intensity: 32.07 ± 5.224 a.u.
Klebsiella pneumoniae [12]
  right shifting of the population, DiSC3-5: 0.6%
